Assays:
[1] = biological target: T1, Ectonucleotide pyrophosphatase/phosphodiesterase family member 3 (Homo sapiens, UniProt O14638); experiment: Inhibition of ENPP3 (unknown origin)
T1 sequence (O14638 whole entry): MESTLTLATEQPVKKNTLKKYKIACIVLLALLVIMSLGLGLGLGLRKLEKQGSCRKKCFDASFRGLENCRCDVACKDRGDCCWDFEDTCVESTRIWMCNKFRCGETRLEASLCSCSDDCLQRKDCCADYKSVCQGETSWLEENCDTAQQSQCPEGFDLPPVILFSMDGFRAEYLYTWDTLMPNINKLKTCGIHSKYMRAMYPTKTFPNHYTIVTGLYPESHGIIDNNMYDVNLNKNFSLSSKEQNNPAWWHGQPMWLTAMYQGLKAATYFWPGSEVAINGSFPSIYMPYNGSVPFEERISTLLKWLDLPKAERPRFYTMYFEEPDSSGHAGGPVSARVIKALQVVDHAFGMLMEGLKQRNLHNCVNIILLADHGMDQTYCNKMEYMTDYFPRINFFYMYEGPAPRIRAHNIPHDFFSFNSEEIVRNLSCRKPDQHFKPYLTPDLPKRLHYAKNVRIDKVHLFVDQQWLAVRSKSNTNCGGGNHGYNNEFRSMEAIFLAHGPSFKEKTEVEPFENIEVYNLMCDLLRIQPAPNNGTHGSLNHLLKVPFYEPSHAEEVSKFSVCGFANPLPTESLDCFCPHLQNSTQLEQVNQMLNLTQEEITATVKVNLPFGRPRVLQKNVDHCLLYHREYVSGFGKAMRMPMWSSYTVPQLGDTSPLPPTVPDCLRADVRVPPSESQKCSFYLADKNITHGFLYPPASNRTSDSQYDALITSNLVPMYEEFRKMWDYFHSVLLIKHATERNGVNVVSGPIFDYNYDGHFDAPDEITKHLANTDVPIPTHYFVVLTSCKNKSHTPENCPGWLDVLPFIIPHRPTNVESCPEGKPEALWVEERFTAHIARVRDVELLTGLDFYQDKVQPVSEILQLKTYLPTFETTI

Autotaxin [2] = biological target: T2, Autotaxin (Homo sapiens, UniProt Q13822); experiment: Inhibition of ENPP2 (unknown origin)
[3] = biological target: T3, Ectonucleotide pyrophosphatase/phosphodiesterase family member 1 (Homo sapiens, UniProt P22413); experiment: Inhibition of ENPP1 (unknown origin)
T3 sequence (P22413 whole entry): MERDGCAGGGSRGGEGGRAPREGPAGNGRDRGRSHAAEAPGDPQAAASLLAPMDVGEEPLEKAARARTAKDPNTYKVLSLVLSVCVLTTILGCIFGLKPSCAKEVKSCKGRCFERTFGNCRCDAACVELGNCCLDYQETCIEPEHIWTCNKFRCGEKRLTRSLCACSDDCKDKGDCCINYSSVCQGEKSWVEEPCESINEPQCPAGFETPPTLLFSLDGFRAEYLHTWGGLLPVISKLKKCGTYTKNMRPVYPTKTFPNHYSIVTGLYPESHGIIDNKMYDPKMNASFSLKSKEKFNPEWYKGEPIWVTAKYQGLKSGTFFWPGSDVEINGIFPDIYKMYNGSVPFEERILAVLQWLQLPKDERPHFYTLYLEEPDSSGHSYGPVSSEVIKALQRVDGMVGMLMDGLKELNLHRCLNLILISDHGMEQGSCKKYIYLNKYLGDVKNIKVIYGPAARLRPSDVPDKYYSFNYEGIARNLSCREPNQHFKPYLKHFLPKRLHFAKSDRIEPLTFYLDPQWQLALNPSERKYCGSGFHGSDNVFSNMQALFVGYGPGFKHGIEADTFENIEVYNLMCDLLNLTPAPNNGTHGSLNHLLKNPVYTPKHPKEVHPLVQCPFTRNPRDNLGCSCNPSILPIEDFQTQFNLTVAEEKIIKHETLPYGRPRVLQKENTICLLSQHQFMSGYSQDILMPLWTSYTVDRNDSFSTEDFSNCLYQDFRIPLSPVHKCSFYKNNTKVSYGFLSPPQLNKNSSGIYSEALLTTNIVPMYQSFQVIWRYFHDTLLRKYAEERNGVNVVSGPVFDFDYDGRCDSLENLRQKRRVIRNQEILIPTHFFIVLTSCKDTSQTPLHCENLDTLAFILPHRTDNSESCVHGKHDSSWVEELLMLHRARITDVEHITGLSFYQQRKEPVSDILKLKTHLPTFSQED

[4] = biological target: T4, Glycerophosphocholine cholinephosphodiesterase ENPP6 (Homo sapiens) (UniProt Q6UWR7); experiment: Inhibition of ENPP6 (unknown origin) at 50 uM relative to control
T4 sequence (whole entry): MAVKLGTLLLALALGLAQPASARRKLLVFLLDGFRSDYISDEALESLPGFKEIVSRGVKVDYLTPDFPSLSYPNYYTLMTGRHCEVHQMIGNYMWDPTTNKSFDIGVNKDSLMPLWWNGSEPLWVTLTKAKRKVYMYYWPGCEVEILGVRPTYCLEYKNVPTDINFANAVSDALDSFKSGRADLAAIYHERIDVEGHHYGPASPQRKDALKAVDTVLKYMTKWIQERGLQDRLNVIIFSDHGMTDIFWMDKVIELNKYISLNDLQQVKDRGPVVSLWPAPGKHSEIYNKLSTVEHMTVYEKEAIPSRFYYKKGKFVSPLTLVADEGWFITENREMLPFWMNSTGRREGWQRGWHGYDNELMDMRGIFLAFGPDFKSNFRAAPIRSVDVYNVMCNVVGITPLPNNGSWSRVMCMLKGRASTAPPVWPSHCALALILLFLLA

[5] = biological target: T5, Glycerophosphocholine cholinephosphodiesterase ENPP6 (Homo sapiens, UniProt Q6UWR7); experiment: Inhibition of ENPP6 (unknown origin)
T5 sequence (Q6UWR7 whole entry): T4 sequence (whole entry)

[6] = biological target: T6, Ectonucleotide pyrophosphatase/phosphodiesterase family member 3 (Homo sapiens) (UniProt O14638); experiment: Inhibition of ENPP3 (unknown origin) at 50 uM relative to control
T6 sequence (whole entry): T1 sequence (O14638 whole entry)

Autotaxin [7] = biological target: T2, Autotaxin; experiment: Inhibition of ENPP2 (unknown origin) at 50 uM relative to control

| SMILES | IC50 [1] | IC50 (Autotaxin [2]) | IC50 [3] | inhibition [4] | IC50 [5] | inhibition [6] | inhibition (Autotaxin [7]) |
| --- | --- | --- | --- | --- | --- | --- | --- |
| COCCNc1c(Cc2ccccc2)c(C)nc2ncnn12 | > 50 µM | > 50 µM | > 30 µM | < 1% | > 50 µM | 3.3% | < 1% |
| COc1cccc(Cc2c(C)nc3ncnn3c2N(C)C)c1 | > 50 µM | > 50 µM | 1.6 µM | < 1% | > 50 µM | 6.5% | 31% |
| Cc1nc2ncnn2c(NCc2cccnc2)c1Cc1cccc(N)c1 | > 50 µM | > 50 µM | 7 µM | < 1% | > 50 µM | 12% | < 1% |
| Cc1nc2ncnn2c2c1Cc1ccccc1N2 | > 50 µM | > 50 µM | > 30 µM | < 1% | > 50 µM | 21% | < 1% |
| CCNc1c(Cc2ccccc2)c(C)nc2ncnn12 | > 50 µM | > 50 µM | 22 µM | < 1% | > 50 µM | 7% | 7.8% |
| CC(=O)Nc1cccc(Cc2c(C)nc3ncnn3c2N(C)C)c1 | > 50 µM | > 50 µM | 2.3 µM | < 1% | > 50 µM | 3% | < 1% |
| Cc1nc2nc(SCC(=O)O)nn2c(N(C)C)c1Cc1ccccc1 | > 50 µM | > 50 µM | > 30 µM | < 1% | > 50 µM | < 1% | < 1% |
| Cc1nc2ncnn2c(N(C)C)c1Cc1cccc([N+](=O)[O-])c1 | > 50 µM | > 50 µM | 3.6 µM | < 1% | > 50 µM | 4.3% | 11% |
| Cc1cc(O)n2ncnc2n1 | > 50 µM | > 50 µM | > 30 µM | 2.1% | > 50 µM | 5.1% | < 1% |
| Cc1nc2ncnn2c(NCCCCC(=O)O)c1Cc1cccc(N)c1 | > 50 µM | > 50 µM | 3.6 µM | 3.5% | > 50 µM | 22% | 27% |
| Cc1cccc(Cc2c(C)nc3ncnn3c2N(C)C)c1 | > 50 µM | > 50 µM | 3.1 µM | 1.1% | > 50 µM | 4.9% | 9.7% |
| Cc1nc2ncnn2c(N(C)C)c1Cc1ccccc1[N+](=O)[O-] | > 50 µM | > 50 µM | 3.1 µM | < 1% | > 50 µM | 6.8% | 4.7% |
| Cc1nc2ncnn2c(N(C)Cc2ccccc2)c1Cc1cccc(N)c1 | > 50 µM | > 50 µM | > 30 µM | < 1% | > 50 µM | < 1% | < 1% |
| CCN(CC)c1c(Cc2ccccc2)c(C)nc2ncnn12 | > 50 µM | > 50 µM | > 30 µM | < 1% | > 50 µM | < 1% | 1.9% |
| Cc1nc2ncnn2c(O)c1Cc1ccccc1 | > 50 µM | > 50 µM | > 30 µM | < 1% | > 50 µM | 2.4% | < 1% |
| Cc1nc2ncnn2c(N(C)C)c1Cc1ccc([N+](=O)[O-])cc1 | > 50 µM | > 50 µM | 21 µM | < 1% | > 50 µM | 2.7% | < 1% |
| CNc1c(Cc2ccccc2)c(C)nc2ncnn12 | > 50 µM | > 50 µM | > 30 µM | < 1% | > 50 µM | 10% | < 1% |
| Cc1nc2ncnn2c(N(C)C)c1Cc1ccc(N)cc1 | > 50 µM | > 50 µM | 0.47 µM | < 1% | > 50 µM | 12% | 7.7% |
| Cc1nc2ncnn2c(N(C)C)c1Cc1ccc(Cl)cc1 | > 50 µM | > 50 µM | 5.7 µM | 2% | > 50 µM | 1.5% | 4.9% |

Other lines, results leading:

| IC50 [1] | IC50 (Autotaxin [2]) | IC50 [3] | inhibition [4] | IC50 [5] | inhibition [6] | inhibition (Autotaxin [7]) | SMILES |
| --- | --- | --- | --- | --- | --- | --- | --- |
| > 50 µM | > 50 µM | 1.3 µM | < 1% | > 50 µM | 4.6% | 6.8% | COc1ccc(Cc2c(C)nc3ncnn3c2N(C)C)cc1OC |
| > 50 µM | > 50 µM | 11 µM | 3.7% | > 50 µM | 11% | 22% | Cc1nc2ncnn2c(NCCCC(=O)O)c1Cc1cccc(N)c1 |
| > 50 µM | > 50 µM | 1.5 µM | < 1% | > 50 µM | 6.3% | 14% | Cc1nc2ncnn2c(N(C)C)c1Cc1cccc(F)c1 |
| > 50 µM | > 50 µM | 28 µM | < 1% | > 50 µM | 10% | < 1% | Cc1cc(N(C)C)n2ncnc2n1 |
| > 50 µM | > 50 µM | 2.5 µM | < 1% | > 50 µM | 3% | 15% | Cc1nc2ncnn2c(N(C)C)c1Cc1ccccc1Cl |
| > 50 µM | > 50 µM | 4.9 µM | 2.3% | > 50 µM | 8.5% | 5.1% | CC(=O)Nc1ccc(Cc2c(C)nc3ncnn3c2N(C)C)cc1 |
| > 50 µM | > 50 µM | > 30 µM | < 1% | > 50 µM | < 1% | 5.5% | CCCN(CCC)c1c(Cc2ccccc2)c(C)nc2ncnn12 |
| > 50 µM | > 50 µM | > 30 µM | < 1% | > 50 µM | 24% | 1.4% | C#CCNc1c(Cc2ccccc2)c(C)nc2ncnn12 |

From ChEMBL document CHEMBL5576074, “[1,2,4]Triazolo[1,5-a]pyrimidine derivatives: Structure-activity relationship study leading to highly selective ENPP1 inhibitors” (Bioorg Med Chem Lett, 2024)
